Source: patent US12337042B2, “Structural optimization method to improve the theranostic performance of peptide receptor-targeted radionuclide therapy for cancers” (University of Iowa Research Foundation, priority 2020, dated 2025)
Read-outs that look alike come from different tables or passages of the source.

Assays:
[1] = ^212Pb-PSC-PEG2-TOC toxicity studies with escalating doses; format: in vivo, CD-1 Elite (SOPF) male mice
Excerpt: FIG. 12A-12F. Dosimetry and toxicities of escalated doses (up to 150 μCi) of ^212Pb—PSC-PEG2-TOC in CD-1 Elite (SOPF) male mice. (A) Body weight change after the injection of ^212Pb-PSC-PEG2-TOC. […] (B) ^212Pb-PSC-PEG2-TOC biodistribution in CD-1 Elite (SOPF) male mice. ^212Pb is used for the study to include the impact of potential demetallation of ^212Pb and redistribution in bone marrow. (C) Estimated renal dose arising from the escalating doses of ^212Pb-PSC-PEG2-TOC based on the biodistribution in CD-1 Elite (SOPF) male mice. Organ level internal dose assessment (OLINDA) V2.1 was used for dose estimation in mice using 30 g mouse voxel phantom model. (D-E) The levels of renal toxicity markers arising from the escalating doses of ^212Pb-PSC-PEG2-TOC assessed by urine neutrophil gelatinase-associated lipocalin (uNGAL; D) at day 1 and day 3 post-administration and blood urea nitrogen (BUN; E) at 3 months post-administration.
^212Pb-PSC-PEG2-TOC Toxicity Studies
Escalating doses (0, 0.37, 1.85, 3.33, and 5.55 MBq or 0, 10, 50, 90, and 150 μCi) of ^212Pb-PSC-PEG2-TOC were administered to tumor-free CD-1 Elite (SOPF) male mice (n=4 for each group). Body weight was measured 2 times a week by 3 weeks post-injection and 1 time a week afterwards. Urine samples were collected (via metabolic case) at day 1 and day 3 post-administration to evaluate acute tubular toxicities in kidneys. […]

[2] = target: T1, SSTR2-positive AR42J cells (Rattus norvegicus, UniProt P30680); assay: ^125I-TOC competitive binding assay in AR42J cells
T1 construct: endogenous in cells; host or cells: AR42J rat pancreatic acinar cells
Method: ^125I-TOC Competitive Binding Assay
TOC was labeled with iodine-125 (^125I) by conventional chloramine T method as described elsewhere (23). 1.0×10^5 AR42J rat pancreatic acinar cells were plated into poly-D-lysine-coated 24-well plates. […] The cells were then washed twice with ice-cold PBS and lysed with 0.5 N NaOH, and the radioactivity was measured via a gamma counter. The half maximal inhibitory concentration (IC50) was determined using GraphPad Prism V8.0.

[3] = AR42J cells, 2 hours at 37° C., mean ± spread, read-out: IC50, competitive inhibition of ^125I-tyr^3-octreotide (^125I-TOC) binding

T1 sequence (P30680 whole entry): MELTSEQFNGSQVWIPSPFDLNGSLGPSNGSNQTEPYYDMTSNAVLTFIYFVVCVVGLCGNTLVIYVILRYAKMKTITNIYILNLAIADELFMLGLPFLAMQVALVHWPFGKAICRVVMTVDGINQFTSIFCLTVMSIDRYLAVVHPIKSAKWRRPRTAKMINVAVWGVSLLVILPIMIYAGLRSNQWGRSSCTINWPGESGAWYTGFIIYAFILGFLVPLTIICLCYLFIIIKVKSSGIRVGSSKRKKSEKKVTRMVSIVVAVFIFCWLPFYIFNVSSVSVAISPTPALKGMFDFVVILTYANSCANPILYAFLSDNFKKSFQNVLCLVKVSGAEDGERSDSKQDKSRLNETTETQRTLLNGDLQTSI

IC50 [2, 3] [nM]	SMILES	further results
	C[C@@H](O)[C@@H]1NC(=O)[C@H](CCCCN)NC(=O)[C@@H](Cc2c[nH]c3ccccc23)NC(=O)[C@H](Cc2ccc(O)cc2)NC(=O)[C@@H](NC(=O)[C@@H](Cc2ccccc2)NC(=O)CCOCCOCCNC(=O)CN2CCN(CC(=O)O)CCN(CC(N)=O)CCN(CC(=O)O)CC2)CSSC[C@@H](C(=O)N[C@H](CO)[C@@H](C)O)NC1=O [^212Pb-PSC-PEG2-TOC, metal not drawn]	hematologic toxicity by complete blood count (CBC) ([1]; doses up to 150 μCi, week 1, 2, and 4 post-administration): reversible hematologic toxicity; body weight change after injection ([1]; escalated doses up to 150 μCi, tumor-free mice): After an initial decrease in body weight in first days, the body weight of the treated mice increased gradually
6.2 ± 1.1	C[C@@H](O)[C@@H]1NC(=O)[C@H](CCCCN)NC(=O)[C@@H](Cc2c[nH]c3ccccc23)NC(=O)[C@H](Cc2ccc(O)cc2)NC(=O)[C@@H](NC(=O)[C@@H](Cc2ccccc2)NC(=O)CN2CCN(CC(=O)O)CCN(CC(N)=O)CCN(CC(=O)O)CC2)CSSC[C@@H](C(=O)N[C@H](CO)[C@@H](C)O)NC1=O [PSC-TOC]	
9.4 ± 1.3	C[C@@H](O)[C@@H]1NC(=O)[C@H](CCCCN)NC(=O)[C@@H](Cc2c[nH]c3ccccc23)NC(=O)[C@H](Cc2ccc(O)cc2)NC(=O)[C@@H](NC(=O)[C@@H](Cc2ccccc2)NC(=O)CCOCCOCCOCCOCCNC(=O)CN2CCN(CC(=O)O)CCN(CC(N)=O)CCN(CC(=O)O)CC2)CSSC[C@@H](C(=O)N[C@H](CO)[C@@H](C)O)NC1=O [PSC-PEG4-TOC]	
	C[C@@H](O)[C@@H]1NC(=O)[C@H](CCCCN)NC(=O)[C@@H](Cc2c[nH]c3ccccc23)NC(=O)[C@H](Cc2ccc(O)cc2)NC(=O)[C@@H](NC(=O)[C@H](N)Cc2ccccc2)CSSC[C@@H](C(=O)N[C@H](CO)[C@@H](C)O)NC1=O [TOC, Tyr^3-octreotide, reference compound]	IC50 [2]: 3.1 ± 1.1 nM

SMILES	IC50 [2, 3] [nM]	further results
C[C@@H](O)[C@@H]1NC(=O)[C@H](CCCCN)NC(=O)[C@@H](Cc2c[nH]c3ccccc23)NC(=O)[C@H](Cc2ccc(O)cc2)NC(=O)[C@@H](NC(=O)[C@@H](Cc2ccccc2)NC(=O)CCOCCOCCNC(=O)CN2CCN(CC(=O)O)CCN(CC(N)=O)CCN(CC(=O)O)CC2)CSSC[C@@H](C(=O)N[C@H](CO)[C@@H](C)O)NC1=O [PSC-PEG2-TOC]	5.3 ± 1.2	
